Experimental data as given in patent publication US6821980B1, “Substituted 5-benzyl-2,4-diaminopyrimidines” (Basilea Pharmaceutica AG, priority 1999, dated 2004).
Converted amounts (≈) assume the structure as drawn. Like-named read-outs stand apart in the source and are kept apart here.

Key:
[1] = system: Streptococcus pneumoniae 1/1; experiment: MIC against Streptococcus pneumoniae 1/1; format: cell-based; details: Streptococcus pneumoniae 1/1, trimethoprim- and penicillin-resistant, serotype 6, clinical isolate; for MIC: read-out: MIC Sp1/1
[2] = system: Staphylococcus aureus 101; experiment: MIC against Staphylococcus aureus 101; format: cell-based; details: Staphylococcus aureus 101, MRSA- and trimethoprim-resistant, clinical isolate; for MIC: read-out: MIC Sa101
[3] = target: T1, purified DHFR of strain Sp1/1 of Streptococcus pneumoniae (Streptococcus pneumoniae serotype 4, UniProt Q54801); format: biochemical
T1 sequence (Q54801 1-168 I100L): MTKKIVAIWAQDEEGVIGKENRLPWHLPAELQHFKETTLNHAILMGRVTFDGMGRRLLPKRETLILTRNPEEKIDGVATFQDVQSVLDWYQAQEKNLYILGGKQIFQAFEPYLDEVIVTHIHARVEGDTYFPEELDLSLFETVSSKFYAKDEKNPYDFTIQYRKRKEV

[4] = target: purified DHFR of strain 157/4696 of Staphylococcus aureus (Staphylococcus aureus, UniProt P13955); experiment: biochemical
purified DHFR of strain 157/4696 of Staphylococcus aureus, sequence (P13955 whole entry): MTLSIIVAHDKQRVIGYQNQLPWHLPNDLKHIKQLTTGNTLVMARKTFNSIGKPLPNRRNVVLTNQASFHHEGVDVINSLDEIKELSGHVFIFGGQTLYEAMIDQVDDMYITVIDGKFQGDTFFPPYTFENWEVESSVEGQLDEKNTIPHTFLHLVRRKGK

[5] = Table 2, IC50 against purified DHFR of strain Sp1/1

SMILES | MIC ([1]; Table 2) [µg/mL] | MIC ([2]; Table 2) [µg/mL] | IC50 [3, 5] [nM] | IC50 [4] [nM] | MIC ([1]; Table 1) [µg/mL] | MIC ([2]; Table 1) [µg/mL] | IC50 ([3]; Table 1, IC50 against purified DHFR of strain Sp1/1) [nM] | MIC Sp1/1 ([1]; Table 2) [µg/mL] | MIC Sa101 ([2]; Table 2) [µg/mL] | IC50 [3] [nM]
CCOc1cc(Cc2cnc(N)nc2N)cc(OS(=O)(=O)C2CC2)c1-c1cc(N)cc(F)c1 [Example 34-c, Cyclopropanesulphonic acid 3′-amino-4-(2,4-diamino-pyrimidin-5-ylmethyl)-6-ethoxy-5′-fluoro-biphenyl-2-yl ester] | 2 (≈ 4.22 µM) | 4 (≈ 8.45 µM) | 3.4 | 190 |  |  |  |  |  | 
CCOc1cc(Cc2cnc(N)nc2N)cc(OCC)c1-c1ccc(N)c(OC)c1 [Example 04-l, 5-(4′-Amino-2,6-diethoxy-3′-methoxy-biphenyl-4-ylmethyl)-pyrimidine-2,4-diamine] | 4 (≈ 9.77 µM) | 8 (≈ 19.5 µM) | 82 | 1900 |  |  |  |  |  | 
CCOc1cc(Cc2cnc(N)nc2N)cc(OS(=O)(=O)C(C)CC)c1-c1ccc(NCCO)cc1 (centres unmarked) [Example 35-f, Butane-2-sulphonic acid 4-(2,4-diamino-pyrimidin-5-ylmethyl)-6-ethoxy-4′-(2-hydroxy-ethylamino)-biphenyl-2-yl ester] | 0.5 (≈ 0.97 µM) | 4 (≈ 7.76 µM) | 8.5 | 120 |  |  |  |  |  | 
CCOc1cc(Cc2cnc(N)nc2N)cc(OS(=O)(=O)N(C)C)c1-c1ccc(CN(C)CCF)cc1 [Example 66-, Dimethylsulphamic acid 4-(2,4-diamino-pyrimidin-5-ylmethyl)-6-ethoxy-4′-{[N-(2-fluoro-ethyl)-N-methyl-amino]-methyl}-binhenyl-2-yl ester] | 4 (≈ 7.51 µM) | 2 (≈ 3.75 µM) | 52 | 170 |  |  |  |  |  | 
CCOc1cc(Cc2cnc(N)nc2N)cc(OS(=O)(=O)C2CCOCC2)c1-c1cccc(N)c1 [Example 41-c, Tetrahydropyran-4-sulphonic acid 3′-amino-4-(2,4-diamino-pyrimidin-5-ylmethyl)-6-ethoxy-biphenyl-2-yl ester] | 0.5 (≈ 1 µM) | 4 (≈ 8.01 µM) | 4.2 | 43 |  |  |  |  |  | 
CCOc1cc(Cc2cnc(N)nc2N)cc(OCC)c1-c1ccc2cc[nH]c2c1 [Example 02-e, 5-[3,5-Diethoxy-4-(1H-indol-6-yl)-benzl]-pyrimidine-2,4-diamine] | 2 (≈ 4.96 µM) | 4 (≈ 9.91 µM) | 22 | 1000 |  |  |  |  |  | 
CCOc1cc(Cc2cnc(N)nc2N)cc(OS(=O)(=O)N2CCCC2)c1-c1ccc(O)cc1 [Example 20-c, Pyrrolidine-1-sulrbonic acid 4-(2,4-diamino-pyrimidin-5-ylmethyl)-6-ethoxy-4′-hydroxy-biphenyl-2-yl ester] | 1 (≈ 2.06 µM) | 4 (≈ 8.24 µM) | 8.1 | 180 |  |  |  |  |  | 
CCOc1cc(Cc2cnc(N)nc2N)cc(OCC)c1-c1cccc(N)c1 [Example 2a, 5-(3′-Amino-2,6-diethoxy-biphenyl-4-ylmethyl)-pyrimidine-2,4-diamine] |  |  |  | 750 | 4 (≈ 10.5 µM) | 8 (≈ 21.1 µM) | 30 |  |  | 
CCOc1cc(Cc2cnc(N)nc2N)cc(OCCC2CCOCC2)c1-c1cccc(N)c1 [Example 07-j, 5-{3′-Amino-2-ethoxy-6-[2-(tetrahydro-pyran-4-yl)-ethoxy]-biphenyl-4-ylmethyl}-pyrimidine-2,4-diamine] | 1 (≈ 2.16 µM) | 8 (≈ 17.3 µM) | 29 | 1300 |  |  |  |  |  | 
CCOc1cc(Cc2cnc(N)nc2N)cc(OCC)c1-c1ccc(NC(C)=O)cc1 [Example 04-p, N-[4′-(2,4-Diamino-pyrimidin-5-ylmethl)-2′,6′-diethoxy-biphen-4-yl]-acetamide] |  |  |  |  |  |  |  | 2 (≈ 4.74 µM) | 8 (≈ 19 µM) | 
CCOc1cc(Cc2cnc(N)nc2N)cc(OCC)c1-n1cccc1 [Epiroprim, reference compound] |  |  |  |  | 4 (≈ 11.3 µM) | 16 (≈ 45.3 µM) |  | 4 (≈ 11.3 µM) | 16 (≈ 45.3 µM) | 190
CCOc1cc(Cc2cnc(N)nc2N)cc(OCC2(CC#N)CC2)c1-c1ccc(OC)cc1 [Example 09-b] | 2 (≈ 4.35 µM) | 8 (≈ 17.4 µM) |  | 1900 |  |  |  |  |  | 
COc1cc(Cc2cnc(N)nc2N)cc(OC)c1OC [Trimethoprim, reference compound] |  |  |  |  | > 32 | 32 (≈ 110 µM) |  | >32 | 32 (≈ 110 µM) | 
